Laboratory results taken from BindingDB's records for doi:10.1016/j.bmc.2019.115125 (Duquesne University, 2019).

Legend:
[1] = Binding affinity to human RFC expressed in Chinese hamster PC43-10 cells assessed as antiproliferative activity measured as reduction in cell growth after 96 hrs by Cell-Titer Blue assay
[2] = Binding affinity to human PCFT expressed in Chinese hamster R2/PCFT4 cells assessed as antiproliferative activity measured as reduction in cell growth after 96 hrs by Cell-Titer Blue assay
[3] = Binding affinity to human FRalpha expressed in Chinese hamster RT16 cells assessed as antiproliferative activity measured as reduction in cell growth after 96 hrs by Cell-Titer Blue assay

SMILES	IC50 [1]	IC50 [2]	IC50 [3]
CN(Cc1cc2c(=O)[nH]c(N)nc2[nH]1)C(=O)c1ccc(C(=O)N[C@@H](CCC(=O)O)C(=O)O)s1	> 1000 nM	> 1000 nM	7.8 nM
CN(Cc1cc2c(=O)[nH]c(N)nc2[nH]1)S(=O)(=O)c1ccc(C(=O)N[C@@H](CCC(=O)O)C(=O)O)cc1	> 1000 nM	> 1000 nM	> 1000 nM
CN(Cc1cc2c(=O)[nH]c(N)nc2[nH]1)C(=O)c1ccc(C(=O)N[C@@H](CCC(=O)O)C(=O)O)cc1	> 1000 nM	49 nM	
CN(Cc1cc2c(=O)[nH]c(N)nc2[nH]1)C(=O)c1cccc(C(=O)N[C@@H](CCC(=O)O)C(=O)O)c1	> 1000 nM	747 nM	1.8 nM
CN(Cc1cc2c(=O)[nH]c(N)nc2[nH]1)C(=O)c1cc(C(=O)N[C@@H](CCC(=O)O)C(=O)O)cs1	> 1000 nM	> 1000 nM	867 nM
CN(Cc1cc2c(=O)[nH]c(N)nc2[nH]1)C(=O)c1csc(C(=O)N[C@@H](CCC(=O)O)C(=O)O)c1	> 1000 nM	> 1000 nM	> 1000 nM
